Assay results: patent publication US20250295798A1, “LIGAND-DRUG CONJUGATE OF EXATECAN ANALOGUE, AND MEDICAL USE THEREOF” (BeiGene Switzerland GmbH, priority 2022, published 2025)
Where a name gives a salt, the structure may show the parent alone.

What was measured:
Calu-6 = assay: Compounds cellular killing in Calu-6; format: cell-based, human; conditions: Calu-6, 6 days, Cell Titer-Glo
Procedure: (§1) Seeding cells A375 (1E3/well) or Calu-6 (2E3/well) into 96-well plate (Greiner: 655090), 100 ul/well. Incubation at 37° C., 5% CO2, overnight.
(§2) Adding the fresh growth-medium containing the varying concentrations of compounds, 50 ul/well.
(§3) Incubation at 37° C., 5% CO2, 6 days.
(§4) The cell viability detected by Cell Titer-Glo (Promega, G7573). Add 70 µL/well of CellTiter-Glo® Reagent in each well.
(§5) Allow the plates to incubate at room temperature for 10 minutes to stabilize luminescent signal.
(§6) Analyze with Microplate Reader.
(§7) Seeding cells A375 ([…] or Calu-6 (2E3/well) into 96-well plate (Greiner: 655090), 100 ul/well. Incubation at 37° C., […], overnight.

A375 = assay: Compounds cellular killing in A375; format: cell-based, human; conditions: A375, 6 days, Cell Titer-Glo
Procedure: as §1, §2, §3, §4, §5, §6, §7

| Structure (SMILES) | EC50 (Calu-6; Homo sapiens, Calu-6, […]) [nM] | Emax (Calu-6; Homo sapiens, Calu-6, […]) [%] | EC50 (A375; Homo sapiens, A-375, […]) [nM] | Emax (A375; Homo sapiens, A-375, […]) [%] | EC50 (Calu-6; Homo sapiens) [nM] | EC50 (A375; Homo sapiens, A-375) [nM] | Emax (A375; Homo sapiens, A-375) [%] | EC50 (Calu-6) [nM] | Emax (%) (Calu-6) | EC50 (A375) [nM] | Emax (%) (A375) |
| --- | --- | --- | --- | --- | --- | --- | --- | --- | --- | --- | --- |
| CC[C@@]1(O)C(=O)OCc2c1cc1n(c2=O)Cc2c-1nc1cc(F)c(C)c3c1c2[C@@H](NC(=O)C(O)(C(F)(F)F)C(F)(F)F)CC3 [Example 2-21, N-((1S,9S)-9-ethyl-5-fluoro-9-hydroxy-4-methyl-10,13-dioxo-2,3,9,10,13,15-hexahydro-1H,12H-benzo[de]pyrano[3′,4′:6,7]indolizino[1,2-b]quinolin-1-yl)-3,3,3-trifluoro-2-hydroxy-2-(trifluoromethyl)propenamide] | 0.4 | 96.7 | 4.5 | 98.3 | – | – | – | – | – | – | – |
| CC[C@@]1(O)C(=O)OCc2c1cc1n(c2=O)Cc2c-1nc1cc(F)c(C)c3c1c2[C@@H](NC(=O)CO)CC3 [Example 1-A, reference compound] | 1 | 98.9 | 2.2 | 98.9 | – | – | – | – | – | – | – |
| CC[C@@]1(O)C(=O)OCc2c1cc1n(c2=O)Cc2c-1nc1cc(F)c(C)c3c1c2C(CNCCCO)CC3 (stereo partly drawn) [Example 2-55, (9S)-9-ethyl-5-fluoro-9-hydroxy-1-(((3-hydroxypropyl)amino)methyl)-4-methyl-1,2,3,9,12,15-hexahydro-10H,13H-benzo[de]pyrano[3′,4′:6,7]indolizino[1,2-b]quinoline-10,13-dione] | 2.8 | 99.3 | 7.3 | 99.8 | – | – | – | – | – | – | – |
| CC[C@@]1(O)C(=O)OCc2c1cc1n(c2=O)Cc2c-1nc1cc(F)cc3c1c2[C@@H](NC(=O)C(C)(C)CO)CC3 [Example 2-43, N-((1S,9S)-9-ethyl-5-fluoro-9-hydroxy-10,13-dioxo-2,3,9,10,13,15-hexahydro-1H,12H-benzo[de]pyrano[3′,4′:6,7]indolizino[1,2-b]quinolin-1-yl)-3-hydroxy-2,2-dimethylpropanamide] | 1.1 | 99.2 | 3.6 | 100 | – | – | – | – | – | – | – |
| CC[C@@]1(O)C(=O)OCc2c1cc1n(c2=O)Cc2c-1nc1cc(F)c(C)c3c1c2[C@@H](NC(=O)OCCO)CC3 [Example 2-6, 2-hydroxyethyl ((1S,9S)-9-ethyl-5-fluoro-9-hydroxy-4-methyl-10,13-dioxo-2,3,9,10,13,15-hexahydro-1H,12H-benzo[de]pyrano[3′,4′:6,7]indolizino[1,2-b]quinolin-1-yl)carbamate] | – | 96.9 | – | – | 0.3 | 1.4 | 99.9 | – | – | – | – |
| CC[C@@]1(O)C(=O)OCc2c1cc1n(c2=O)Cc2c-1nc1cc(F)c(C)c3c1c2[C@@H](N1CCC1CO)CC3 (single isomer, unassigned) [Example 2-56] | – | – | – | – | – | – | – | 0.2 | 99.0 | 0.9 | 100.0 |
| CC[C@@]1(O)C(=O)OCc2c1cc1n(c2=O)Cc2c-1nc1cc(F)c(C)c3c1c2[C@@H](NC(=O)[C@@H]1C[C@@H](O)CN1C)CC3 [Example 2-36, (2S,4R)—N-((1S,9S)-9-ethyl-5-fluoro-9-hydroxy-4-methyl-10,13-dioxo-2,3,9,10,13,15-hexahydro-1H,12H-benzo[de]pyrano[3′,4′:6,7]indolizino[1,2-b]quinolin-1-yl)-4-hydroxy-1-methylpyrrolidine-2-carboxamide] | 6.2 | 97.7 | 13.9 | 97.8 | – | – | – | – | – | – | – |
| CC[C@@]1(O)C(=O)OCc2c1cc1n(c2=O)Cc2c-1nc1cc(F)c(C)c3c1c2[C@@H](NC(=O)C1CCC1CO)CC3 (stereo partly drawn) [Example 2-2, N-((1S,9S)-9-ethyl-5-fluoro-9-hydroxy-4-methyl-10,13-dioxo-2,3,9,10,13,15-hexahydro-1H,12H-benzo[de]pyrano[3′,4′:6,7]indolizino[1,2-b]quinolin-1-yl)-2-(hydroxymethyl)cyclobutane-1-carboxamide] | 1.3 | 98.7 | 5.2 | 99.9 | – | – | – | – | – | – | – |
| CC[C@@]1(O)C(=O)OCc2c1cc1n(c2=O)Cc2c-1nc1cc(F)c(C)c3c1c2[C@@H](n1cc(CO)nn1)CC3 [Example 2-22, (1S,9S)-9-ethyl-5-fluoro-9-hydroxy-1-(4-(hydroxymethyl)-1H-1,2,3-triazol-1-yl)-4-methyl-1,2,3,9,12,15-hexahydro-10H,13H-benzo[de]pyrano[3′,4′:6,7]indolizino[1,2-b]quinoline-10,13-dione] | 5.6 | 98 | 10.4 | 97.7 | – | – | – | – | – | – | – |
| CC[C@@]1(O)C(=O)OCc2c1cc1n(c2=O)Cc2c-1nc1cc3c(c4c1c2[C@@H](N)CC4)OC(F)(F)O3 [Example 1-16, (1S,10S)-1-amino-10-ethyl-5,5-difluoro-10-hydroxy-1,2,3,10,13,16-hexahydro-11H,14H-benzo[de][1,3]dioxolo[4,5-g]pyrano[3′,4′:6,7]indolizino[1,2-b]quinoline-11,14-dione 2,2,2-trifluoroacetate salt] | 0.6 | 98.5 | 1.6 | 98.5 | – | – | – | – | – | – | – |
| CC[C@@]1(O)C(=O)OCc2c1cc1n(c2=O)Cc2c-1nc1cc3c(c4c1c2[C@@H](NC(=O)CO)CC4)OCO3 [Example 2-11, N-((1S,10S)-10-ethyl-10-hydroxy-11,14-dioxo-2,3,10,11,14,16-hexahydro-1H,13H-benzo[de][1,3]dioxolo[4,5-g]pyrano[3′,4′:6,7]indolizino[1,2-b]quinolin-1-yl)-2-hydroxyacetamide] | – | 99.6 | – | – | 3.2 | 10.2 | 99.7 | – | – | – | – |
| CC[C@@]1(O)C(=O)OCc2c1cc1n(c2=O)Cc2c-1nc1cc(F)c(C)c3c1c2[C@@H](NC(=O)C[C@@H](O)C[N+](C)(C)C)CC3 [Example 2-15, (R)-4-(((1S,9S)-9-ethyl-5-fluoro-9-hydroxy-4-methyl-10,13-dioxo-2,3,9,10,13,15-hexahydro-1H,12H-benzo[de]pyrano[3′,4′:6,7]indolizino[1,2-b]quinolin-1-yl)amino)-2-hydroxy-N,N,N-trimethyl-4-oxobutan-1-aminium] | 179 | 90.1 | 442 | 73.5 | – | – | – | – | – | – | – |
| CC[C@@]1(O)C(=O)OCc2c1cc1n(c2=O)Cc2c-1nc1cc(F)c(F)c3c1c2[C@@H](NC(=O)CO)CC3 [Example 2-30, N-((1S,9S)-9-ethyl-4,5-difluoro-9-hydroxy-10,13-dioxo-2,3,9,10,13,15-hexahydro-1H,12H-benzo[de]pyrano[3′,4′:6,7]indolizino[1,2-b]quinolin-1-yl)-2-hydroxyacetamide] | 0.7 | 98.9 | 1.2 | 98.9 | – | – | – | – | – | – | – |
| CC[C@@]1(O)C(=O)OCc2c1cc1n(c2=O)Cc2c-1nc1cc(Cl)cc3c1c2[C@@H](N)CC3 [Example 1-14, (1S,9S)-1-amino-5-chloro-9-ethyl-9-hydroxy-1,2,3,9,12,15-hexahydro-10H,13H-benzo[de]pyrano[3′,4′:6,7]indolizino[1,2-b]quinoline-10,13-dione] | – | 98.8 | – | – | 0.8 | 2.5 | 100 | – | – | – | – |
| CC[C@@]1(O)C(=O)OCc2c1cc1n(c2=O)Cc2c-1nc1cc(F)c(C)c3c1c2[C@@H](NC(=O)c1ccc(CO)o1)CC3 [Example 2-19, N-((1S,9S)-9-ethyl-5-fluoro-9-hydroxy-4-methyl-10,13-dioxo-2,3,9,10,13,15-hexahydro-1H,12H-benzo[de]pyrano[3′,4′:6,7]indolizino[1,2-b]quinolin-1-yl)-5-(hydroxymethyl)furan-2-carboxamide] | – | 99.3 | – | – | 1 | 4.6 | 99.7 | – | – | – | – |
| CC[C@@]1(O)C(=O)OCc2c1cc1n(c2=O)Cc2c-1nc1cc(F)c(C)c3c1c2[C@@H](N1CCCC1CO)CC3 (single isomer, unassigned) [Example 2-50] | – | – | – | – | – | – | – | – | 99.2 | 0.3 | 99.5 |
| CC[C@@]1(O)C(=O)OCc2c1cc1n(c2=O)Cc2c-1nc1cc(F)c(OC)c3c1c2[C@@H](NC(=O)CO)CC3 [Example 2-4, N-((1S,9S)-9-ethyl-5-fluoro-9-hydroxy-4-methoxy-10,13-dioxo-2,3,9,10,13,15-hexahydro-1H,12H-benzo[de]pyrano[3′,4′:6,7]indolizino[1,2-b]quinolin-1-yl)-2-hydroxyacetamide] | 4.9 | 99.7 | 18 | 99.3 | – | – | – | – | – | – | – |
| CC[C@@]1(O)C(=O)OCc2c1cc1n(c2=O)Cc2c-1nc1cc(F)c(C)c3c1c2[C@@H](NC(=O)C(C)(F)CO)CC3 (stereo partly drawn) [Example 2-41, N-((1S,9S)-9-ethyl-5-fluoro-9-hydroxy-4-methyl-10,13-dioxo-2,3,9,10,13,15-hexahydro-1H,12H-benzo[de]pyrano[3′,4′:6,7]indolizino[1,2-b]quinolin-1-yl)-2-fluoro-3-hydroxy-2-methylpropanamide] | 0.6 | 98.2 | 1.5 | 99.9 | – | – | – | – | – | – | – |
| CC[C@@]1(O)C(=O)OCc2c1cc1n(c2=O)Cc2c-1nc1cc(F)c(C)c3c1c2C(CN(C)CCO)CC3 (stereo partly drawn) [Example 2-54, (9S)-9-ethyl-5-fluoro-9-hydroxy-1-(((2-hydroxyethyl)(methyl)amino)methyl)-4-methyl-1,2,3,9,12,15-hexahydro-10H,13H-benzo[de]pyrano[3′,4′:6,7]indolizino[1,2-b]quinoline-10,13-dione] | 0.2 | 98.2 | 0.9 | 100 | – | – | – | – | – | – | – |
